Test system: IGROV1 complex spheroids (HUVEC, MSC), viability % test/control
Assay: Anticancer human tumor IGROV1 cell line growth inhibition [GQUAD];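 further: spheroids exposed to compounds for 7 days before readout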;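 on viability, T/C: 100% = DMSO vehicle control viability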
Conditions: for IC50: curve of first compound; for viability, T/C: stronger effect = lower value
Outline: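 Multi-cell-type spheroids of tumor cells with HUVEC and mesenchymal stem cells, treated with drug combinations. Concentrations descend in half-log steps from near clinical Cmax, or from 10 microM where Cmax is unknown; viability read-out.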

[1] = second compound 0.0316 µM, first compound 0.0316 µM
[2] = second compound 0.0316 µM, first compound 0.1 µM
[3] = second compound 0.0316 µM, first compound 0.316 µM
[4] = second compound 0.0316 µM, first compound 1 µM
[5] = second compound 0.0316 µM, first compound 3.16 µM
[6] = second compound 0.0316 µM, first compound 10 µM
[7] = second compound 0.1 µM, first compound 0.0316 µM
[8] = second compound 0.1 µM, first compound 0.1 µM
[9] = second compound 0.1 µM, first compound 0.316 µM
[10] = second compound 0.1 µM, first compound 1 µM
[11] = second compound 0.1 µM, first compound 3.16 µM
[12] = second compound 0.1 µM, first compound 10 µM
[13] = second compound 0.316 µM, first compound 0.0316 µM
[14] = second compound 0.316 µM, first compound 0.1 µM
[15] = second compound 0.316 µM, first compound 0.316 µM
[16] = second compound 0.316 µM, first compound 1 µM
[17] = second compound 0.316 µM, first compound 3.16 µM
[18] = second compound 0.316 µM, first compound 10 µM
[19] = second compound 1 µM, first compound 0.0316 µM
[20] = second compound 1 µM, first compound 0.1 µM
[21] = second compound 1 µM, first compound 0.316 µM
[22] = second compound 1 µM, first compound 1 µM
[23] = second compound 1 µM, first compound 3.16 µM
[24] = second compound 1 µM, first compound 10 µM
[25] = second compound 3.16 µM, first compound 0.0316 µM
[26] = second compound 3.16 µM, first compound 0.1 µM
[27] = second compound 3.16 µM, first compound 0.316 µM
[28] = second compound 3.16 µM, first compound 1 µM
[29] = second compound 3.16 µM, first compound 3.16 µM
[30] = second compound 3.16 µM, first compound 10 µM
[31] = second compound 10 µM, first compound 0.0316 µM
[32] = second compound 10 µM, first compound 0.1 µM
[33] = second compound 10 µM, first compound 0.316 µM
[34] = second compound 10 µM, first compound 1 µM
[35] = second compound 10 µM, first compound 3.16 µM
[36] = second compound 10 µM, first compound 10 µM

## CC1COCCN1c1cc(C2(S(C)(=N)=O)CC2)nc(-c2ccnc3[nH]ccc23)n1 (stereo not given) + Cc1cnc(CNC(=O)c2c(=O)c3ccc(N4CCCN(C)CC4)nc3n3c2sc2ccccc23)cn1
Second compound 0.0316 µM
  IC50: 205 nM
Second compound 0.1 µM
  IC50: < 31.6 nM
Second compound 0.316 µM
  IC50: < 31.6 nM
Second compound 1 µM
  IC50: < 31.6 nM
Second compound 3.16 µM
  IC50: < 31.6 nM
Second compound 10 µM
  IC50: < 31.6 nM
[1]
  viability, T/C: 71.7%
[2]
  viability, T/C: 62.6%
[3]
  viability, T/C: 43.3%
[4]
  viability, T/C: 15.1%
[5]
  viability, T/C: 31.4%
[6]
  viability, T/C: 5.8%
[7]
  viability, T/C: 35.4%
[8]
  viability, T/C: 36%
[9]
  viability, T/C: 16.5%
[10]
  viability, T/C: 10.8%
[11]
  viability, T/C: 12.8%
[12]
  viability, T/C: 4.75%
[13]
  viability, T/C: 26.8%
[14]
  viability, T/C: 20.6%
[15]
  viability, T/C: 13.7%
[16]
  viability, T/C: 7.83%
[17]
  viability, T/C: 13.6%
[18]
  viability, T/C: 4.61%
[19]
  viability, T/C: 13.3%
[20]
  viability, T/C: 17.7%
[21]
  viability, T/C: 13.3%
[22]
  viability, T/C: 8.94%
[23]
  viability, T/C: 11.2%
[24]
  viability, T/C: 6.04%
[25]
  viability, T/C: 11.9%
[26]
  viability, T/C: 10.2%
[27]
  viability, T/C: 10.9%
[28]
  viability, T/C: 8.09%
[29]
  viability, T/C: 10.3%
[30]
  viability, T/C: 5.89%
[31]
  viability, T/C: 9.84%
[32]
  viability, T/C: 9.08%
[33]
  viability, T/C: 9.32%
[34]
  viability, T/C: 8.94%
[35]
  viability, T/C: 9.55%
[36]
  viability, T/C: 4.74%

## O=c1[nH]cc(F)c(=O)[nH]1 + Cc1[nH]c2ccc(F)cc2c1-c1nc2c3cccnc3c3ncccc3c2[nH]1
Second compound 0.0316 µM
  IC50: 6750 nM
Second compound 0.1 µM
  IC50: 5500 nM
Second compound 0.316 µM
  IC50: 4000 nM
Second compound 1 µM
  IC50: < 31.6 nM
Second compound 3.16 µM
  IC50: < 31.6 nM
Second compound 10 µM
  IC50: < 31.6 nM
[1]
  viability, T/C: 104%
[2]
  viability, T/C: 83.6%
[3]
  viability, T/C: 103%
[4]
  viability, T/C: 80.3%
[5]
  viability, T/C: 82.6%
[6]
  viability, T/C: 34.5%
[7]
  viability, T/C: 96.1%
[8]
  viability, T/C: 104%
[9]
  viability, T/C: 84%
[10]
  viability, T/C: 69.5%
[11]
  viability, T/C: 80.8%
[12]
  viability, T/C: 27.8%
[13]
  viability, T/C: 79.6%
[14]
  viability, T/C: 67.5%
[15]
  viability, T/C: 77.1%
[16]
  viability, T/C: 70.8%
[17]
  viability, T/C: 55.4%
[18]
  viability, T/C: 24.3%
[19]
  viability, T/C: 5.37%
[20]
  viability, T/C: 4.95%
[21]
  viability, T/C: 4.49%
[22]
  viability, T/C: 4.87%
[23]
  viability, T/C: 5.05%
[24]
  viability, T/C: 5.26%
[25]
  viability, T/C: 4.5%
[26]
  viability, T/C: 4.46%
[27]
  viability, T/C: 5.38%
[28]
  viability, T/C: 4.48%
[29]
  viability, T/C: 5.61%
[30]
  viability, T/C: 4.44%
[31]
  viability, T/C: 4.32%
[32]
  viability, T/C: 4.75%
[33]
  viability, T/C: 4.71%
[34]
  viability, T/C: 4.66%
[35]
  viability, T/C: 4.72%
[36]
  viability, T/C: 5.12%

## CC1COCCN1c1cc(-c2ccnn2C)c2ccnc(-c3ccn[nH]3)c2n1 (stereo not given) + Cc1cnc(CNC(=O)c2c(=O)c3ccc(N4CCCN(C)CC4)nc3n3c2sc2ccccc23)cn1
Second compound 0.0316 µM
  IC50: < 31.6 nM
Second compound 0.1 µM
  IC50: < 31.6 nM
Second compound 0.316 µM
  IC50: < 31.6 nM
Second compound 1 µM
  IC50: < 31.6 nM
Second compound 3.16 µM
  IC50: < 31.6 nM
Second compound 10 µM
  IC50: < 31.6 nM
[1]
  viability, T/C: 16.8%
[2]
  viability, T/C: 9.68%
[3]
  viability, T/C: 7.59%
[4]
  viability, T/C: 5.06%
[5]
  viability, T/C: 4.01%
[6]
  viability, T/C: 2.97%
[7]
  viability, T/C: 10.3%
[8]
  viability, T/C: 7.36%
[9]
  viability, T/C: 6.21%
[10]
  viability, T/C: 5.27%
[11]
  viability, T/C: 3.92%
[12]
  viability, T/C: 4.13%
[13]
  viability, T/C: 9%
[14]
  viability, T/C: 7.55%
[15]
  viability, T/C: 6.04%
[16]
  viability, T/C: 5.16%
[17]
  viability, T/C: 4.14%
[18]
  viability, T/C: 3.5%
[19]
  viability, T/C: 8.34%
[20]
  viability, T/C: 6.08%
[21]
  viability, T/C: 5.92%
[22]
  viability, T/C: 5.14%
[23]
  viability, T/C: 3.89%
[24]
  viability, T/C: 3%
[25]
  viability, T/C: 7.12%
[26]
  viability, T/C: 7.74%
[27]
  viability, T/C: 7.15%
[28]
  viability, T/C: 5.94%
[29]
  viability, T/C: 3.88%
[30]
  viability, T/C: 2.53%
[31]
  viability, T/C: 6.76%
[32]
  viability, T/C: 5.78%
[33]
  viability, T/C: 7.42%
[34]
  viability, T/C: 3.84%
[35]
  viability, T/C: 4.68%
[36]
  viability, T/C: 2.74%

## CC1COCCN1c1cc(C2(O)CC3CCC(C2)O3)c2cnn(-c3ccn[nH]3)c2n1 (stereo not given) + Cc1[nH]c2ccc(F)cc2c1-c1nc2c3cccnc3c3ncccc3c2[nH]1
Second compound 0.0316 µM
  IC50: 37.6 nM
Second compound 0.1 µM
  IC50: 42.3 nM
Second compound 0.316 µM
  IC50: < 31.6 nM
Second compound 1 µM
  IC50: < 31.6 nM
Second compound 3.16 µM
  IC50: < 31.6 nM
Second compound 10 µM
  IC50: < 31.6 nM
[1]
  viability, T/C: 55.6%
[2]
  viability, T/C: 18.9%
[3]
  viability, T/C: 7.44%
[4]
  viability, T/C: 4.8%
[5]
  viability, T/C: 3.59%
[6]
  viability, T/C: 2.02%
[7]
  viability, T/C: 61%
[8]
  viability, T/C: 17.7%
[9]
  viability, T/C: 8.01%
[10]
  viability, T/C: 6.5%
[11]
  viability, T/C: 3.58%
[12]
  viability, T/C: 1.71%
[13]
  viability, T/C: 21.6%
[14]
  viability, T/C: 7.64%
[15]
  viability, T/C: 4.88%
[16]
  viability, T/C: 3.7%
[17]
  viability, T/C: 3.28%
[18]
  viability, T/C: 1.86%
[19]
  viability, T/C: 3%
[20]
  viability, T/C: 3.91%
[21]
  viability, T/C: 3.25%
[22]
  viability, T/C: 3.03%
[23]
  viability, T/C: 3.34%
[24]
  viability, T/C: 1.4%
[25]
  viability, T/C: 3.59%
[26]
  viability, T/C: 4.2%
[27]
  viability, T/C: 3.24%
[28]
  viability, T/C: 3.06%
[29]
  viability, T/C: 3.02%
[30]
  viability, T/C: 1.16%
[31]
  viability, T/C: 3.5%
[32]
  viability, T/C: 2.96%
[33]
  viability, T/C: 4.38%
[34]
  viability, T/C: 2.77%
[35]
  viability, T/C: 3%
[36]
  viability, T/C: 1.15%

## Nc1ccn(C2OC(CO)C(O)C2(F)F)c(=O)n1 (stereo not given) + Cc1cnc(CNC(=O)c2c(=O)c3ccc(N4CCCN(C)CC4)nc3n3c2sc2ccccc23)cn1
Second compound 0.0316 µM
  IC50: < 31.6 nM
Second compound 0.1 µM
  IC50: < 31.6 nM
Second compound 0.316 µM
  IC50: < 31.6 nM
Second compound 1 µM
  IC50: < 31.6 nM
Second compound 3.16 µM
  IC50: < 31.6 nM
Second compound 10 µM
  IC50: < 31.6 nM
[1]
  viability, T/C: 10.5%
[2]
  viability, T/C: 5.6%
[3]
  viability, T/C: 5.15%
[4]
  viability, T/C: 4.7%
[5]
  viability, T/C: 4.99%
[6]
  viability, T/C: 4.44%
[7]
  viability, T/C: 12.7%
[8]
  viability, T/C: 4.99%
[9]
  viability, T/C: 8.19%
[10]
  viability, T/C: 6.35%
[11]
  viability, T/C: 5.18%
[12]
  viability, T/C: 3.96%
[13]
  viability, T/C: 11.5%
[14]
  viability, T/C: 5.16%
[15]
  viability, T/C: 5.92%
[16]
  viability, T/C: 5.56%
[17]
  viability, T/C: 4.85%
[18]
  viability, T/C: 4.62%
[19]
  viability, T/C: 11.1%
[20]
  viability, T/C: 7%
[21]
  viability, T/C: 6.75%
[22]
  viability, T/C: 6.61%
[23]
  viability, T/C: 4.42%
[24]
  viability, T/C: 4.28%
[25]
  viability, T/C: 6.61%
[26]
  viability, T/C: 7.28%
[27]
  viability, T/C: 6.54%
[28]
  viability, T/C: 5.77%
[29]
  viability, T/C: 5.25%
[30]
  viability, T/C: 3.96%
[31]
  viability, T/C: 9.97%
[32]
  viability, T/C: 6.38%
[33]
  viability, T/C: 5.25%
[34]
  viability, T/C: 7.22%
[35]
  viability, T/C: 5.43%
[36]
  viability, T/C: 3.66%

Source: PubChem BioAssay AID2060486 (Molecular Pharmacology Branch, DTP, NCI, 2025)
